In US20260116920A1, “HUMAN TRANSFERRIN RECEPTOR BINDING PEPTIDE” (PEPTIDREAM INC., priority 2021, published 2026):
Positions of bridges follow the written chain, without caps; N, C: chain ends. Non-standard residues stand in square brackets, D forms with d. Residues, ends and D or L forms follow the SMILES beside them. *: point of attachment. Trp(1-CH2COOH) = N[C@@H](Cc1cn(CC(=O)O)c2ccccc12)C(=O)O; Phe(3-COOH) = N[C@@H](Cc1cccc(C(=O)O)c1)C(=O)O; NH(CH2CH2O)8Me = COCCOCCOCCOCCOCCOCCOCCOCCN*; NMePhe(3-Cl) = CN[C@@H](Cc1cccc(Cl)c1)C(=O)O; 3Pal(6-NH2) = Nc1ccc(C[C@H](N)C(=O)O)cn1; NMeY = CN[C@@H](Cc1ccc(O)cc1)C(=O)O; 3Pal = N[C@@H](Cc1cccnc1)C(=O)O; 4Pal = N[C@@H](Cc1ccncc1)C(=O)O; PEG4 = NCCOCCOCCOCCOCCC(=O)O; Carboxymethyl = O=C(O)C*

biological target: T1, human transferrin receptor (hTfR) (Homo sapiens, UniProt P02786); experiment: Evaluation of molecular interaction between transferrin receptor (hTfR) and peptide using surface plasmon resonance (SPR); assay type: binding; conditions: surface plasmon resonance, binding to hTfR; KD class symbol; read-out: SPR (KD value)
T1 construct: made in house
How it was run: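 SPR, single-cycle kinetics; hTfR dimer on NTA chip via Ni capture plus EDC/NHS coupling. Analyte peptide 100, 50, 25, 10, 5 nM. Running buffer: 10 mM HEPES pH 8.0, 150 mM NaCl, 0.05% Tween 20, 0.1% BSA, 1.0% DMSO. KD by least-squares fit.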

T1 sequence (P02786 89-760 limits assumed): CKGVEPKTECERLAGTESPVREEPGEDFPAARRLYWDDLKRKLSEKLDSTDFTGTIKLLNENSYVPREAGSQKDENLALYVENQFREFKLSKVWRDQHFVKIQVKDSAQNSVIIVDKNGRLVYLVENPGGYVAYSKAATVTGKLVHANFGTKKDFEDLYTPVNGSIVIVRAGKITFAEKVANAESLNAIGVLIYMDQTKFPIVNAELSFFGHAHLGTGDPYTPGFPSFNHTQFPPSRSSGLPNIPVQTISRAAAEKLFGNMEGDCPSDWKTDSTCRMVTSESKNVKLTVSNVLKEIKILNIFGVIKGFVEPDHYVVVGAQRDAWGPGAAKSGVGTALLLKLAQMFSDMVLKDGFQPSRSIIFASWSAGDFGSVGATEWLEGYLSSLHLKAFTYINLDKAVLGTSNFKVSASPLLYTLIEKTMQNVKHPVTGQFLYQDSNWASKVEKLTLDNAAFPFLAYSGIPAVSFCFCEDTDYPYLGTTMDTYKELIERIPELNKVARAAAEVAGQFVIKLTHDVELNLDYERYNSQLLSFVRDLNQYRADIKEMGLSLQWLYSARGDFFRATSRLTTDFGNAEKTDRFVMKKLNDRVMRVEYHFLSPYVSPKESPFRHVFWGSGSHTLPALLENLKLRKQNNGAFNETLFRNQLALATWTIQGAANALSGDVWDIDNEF

Row | SMILES | Kd [nM]
1 | CC[C@H](C)[C@@H]1NC(=O)[C@H](Cc2ccc(OC)cc2)NC(=O)[C@H](Cc2ccc(O)cc2)NC(=O)[C@H](CC(N)=O)NC(=O)[C@H](Cc2cn(CC(=O)O)c3ccccc23)NC(=O)[C@H](C(C)C)NC(=O)[C@H](Cc2cccc(Cl)c2)N(C)C(=O)[C@H](C(C)C)NC(=O)[C@H](C)NC(=O)CSC[C@@H](C(=O)NCCOCCOCCOCCOCCC(N)=O)NC(=O)[C@H](Cc2ccc(O)cc2)N(C)C(=O)[C@H](Cc2cccc(C(=O)O)c2)NC(=O)[C@H](CCC(=O)NCCOCCOCCOCCOCCOCCOCCOCCOC)NC(=O)[C@H](CCCNC(=N)N)NC(=O)[C@H]([C@@H](C)CC)NC1=O [compound 77] ({CH2CO}-AV[NMePhe(3-Cl)]V[Trp(1-CH2COOH)]NYY(Me)IIRE(NH(CH2CH2O)8Me)[Phe(3-COOH)][NMeY]C[PEG4]-NH2; thioether N-15) | 1 to 100
2 | CC[C@H](C)[C@@H]1NC(=O)[C@H](Cc2ccc(OC)cc2)NC(=O)[C@H](Cc2ccc(O)cc2)NC(=O)[C@H](CC(N)=O)NC(=O)[C@H](Cc2cn(CC(=O)O)c3ccccc23)NC(=O)[C@H](C(C)C)NC(=O)[C@H](Cc2cccc(Cl)c2)N(C)C(=O)[C@H](C(C)C)NC(=O)[C@H](C)NC(=O)CSC[C@@H](C(=O)NCCOCCOCCOCCOCCC(N)=O)NC(=O)[C@H](Cc2ccc(O)cc2)N(C)C(=O)[C@H](Cc2ccncc2)NC(=O)[C@H](CCC(=O)NCCOCCOCCOCCOCCOCCOCCOCCOC)NC(=O)[C@H](CCCNC(=N)N)NC(=O)[C@H]([C@@H](C)CC)NC1=O [compound 78] ({CH2CO}-AV[NMePhe(3-Cl)]V[Trp(1-CH2COOH)]NYY(Me)IIRE(NH(CH2CH2O)8Me)[4Pal][NMeY]C[PEG4]-NH2; thioether N-15) | 1 to 100
3 | CC[C@H](C)[C@@H]1NC(=O)[C@H](Cc2cccnc2)NC(=O)[C@H](Cc2ccc(N)nc2)NC(=O)[C@H](CC(N)=O)NC(=O)[C@H](Cc2cn(CC(=O)O)c3ccccc23)NC(=O)[C@H](C(C)C)NC(=O)[C@H](Cc2cccc(Cl)c2)N(C)C(=O)[C@H](C(C)C)NC(=O)[C@H](C)NC(=O)CSC[C@@H](C(=O)NCCOCCOCCOCCOCCC(N)=O)NC(=O)[C@H](Cc2ccc(O)cc2)N(C)C(=O)[C@H](Cc2cccc(C(=O)O)c2)NC(=O)[C@H](CCCNC(=N)N)NC(=O)[C@H](CCCNC(=N)N)NC(=O)[C@H]([C@@H](C)CC)NC1=O [compound 79] ({CH2CO}-AV[NMePhe(3-Cl)]V[Trp(1-CH2COOH)]N[3Pal(6-NH2)][3Pal]IIRR[Phe(3-COOH)][NMeY]C[PEG4]-NH2; thioether N-15) | 1 to 100
4 | CC[C@H](C)[C@@H]1NC(=O)[C@H](Cc2ccc(OCC(=O)O)cc2)NC(=O)[C@H](Cc2ccc(N)nc2)NC(=O)[C@H](CC(N)=O)NC(=O)[C@H](Cc2cn(CC(=O)O)c3ccccc23)NC(=O)[C@H](C(C)C)NC(=O)[C@H](Cc2cccc(Cl)c2)N(C)C(=O)[C@H](C(C)C)NC(=O)[C@H](C)NC(=O)CSC[C@@H](C(=O)NCCOCCOCCOCCOCCC(N)=O)NC(=O)[C@H](Cc2ccc(O)cc2)N(C)C(=O)[C@H](Cc2ccncc2)NC(=O)[C@H](CCCNC(=N)N)NC(=O)[C@H](CCCNC(=N)N)NC(=O)[C@H]([C@@H](C)CC)NC1=O [compound 80] | 1 to 100
5 | CC[C@H](C)[C@@H]1NC(=O)[C@H](Cc2ccc(OCC(=O)O)cc2)NC(=O)[C@H](Cc2ccc(N)nc2)NC(=O)[C@H](CC(N)=O)NC(=O)[C@H](Cc2cn(CC(=O)O)c3ccccc23)NC(=O)[C@H](C(C)C)NC(=O)[C@H](Cc2cccc(Cl)c2)N(C)C(=O)[C@H](C(C)C)NC(=O)[C@H](C)NC(=O)CSC[C@@H](C(=O)NCCOCCOCCOCCOCCC(N)=O)NC(=O)[C@H](Cc2ccc(O)cc2)N(C)C(=O)[C@H](Cc2cccc(C(=O)O)c2)NC(=O)[C@H](CCCNC(=N)N)NC(=O)[C@H](CCCNC(=N)N)NC(=O)[C@H]([C@@H](C)CC)NC1=O [compound 81] ({CH2CO}-AV[NMePhe(3-Cl)]V[Trp(1-CH2COOH)]N[3Pal(6-NH2)]Y(Carboxymethyl)IIRR[Phe(3-COOH)][NMeY]C[PEG4]-NH2; thioether N-15) | 1 to 100
6 | CC[C@H](C)[C@@H]1NC(=O)[C@H](Cc2ccc(OCC(=O)O)cc2)NC(=O)[C@H](Cc2ccc(O)cc2)NC(=O)[C@H](CC(N)=O)NC(=O)[C@H](Cc2cn(CC(=O)O)c3ccccc23)NC(=O)[C@H](C(C)C)NC(=O)[C@H](Cc2cccc(Cl)c2)N(C)C(=O)[C@H](C(C)C)NC(=O)[C@H](C)NC(=O)CSC[C@@H](C(=O)NCCOCCOCCOCCOCCC(N)=O)NC(=O)[C@H](Cc2ccc(O)cc2)N(C)C(=O)[C@H](Cc2ccncc2)NC(=O)[C@H](CCC(=O)NCCOCCOCCOCCOCCOCCOCCOCCOC)NC(=O)[C@H](CCCNC(=N)N)NC(=O)[C@H]([C@@H](C)CC)NC1=O [compound 82] ({CH2CO}-AV[NMePhe(3-Cl)]V[Trp(1-CH2COOH)]NYY(Carboxymethyl)IIRE(NH(CH2CH2O)8Me)[4Pal][NMeY]C[PEG4]-NH2; thioether N-15) | 1 to 100
7 | CC[C@H](C)[C@@H]1NC(=O)[C@H](Cc2cccnc2)NC(=O)[C@H](Cc2ccc(O)cc2)NC(=O)[C@H](CC(N)=O)NC(=O)[C@H](Cc2cn(CC(=O)O)c3ccccc23)NC(=O)[C@H](C(C)C)NC(=O)[C@H](Cc2cccc(Cl)c2)N(C)C(=O)[C@H](C(C)C)NC(=O)[C@H](C)NC(=O)CSC[C@@H](C(=O)NCCOCCOCCOCCOCCC(N)=O)NC(=O)[C@H](Cc2ccc(O)cc2)N(C)C(=O)[C@H](Cc2ccncc2)NC(=O)[C@H](CCC(=O)NCCOCCOCCOCCOCCOCCOCCOCCOC)NC(=O)[C@H](CCCNC(=N)N)NC(=O)[C@H]([C@@H](C)CC)NC1=O [compound 83] ({CH2CO}-AV[NMePhe(3-Cl)]V[Trp(1-CH2COOH)]NY[3Pal]IIRE(NH(CH2CH2O)8Me)[4Pal][NMeY]C[PEG4]-NH2; thioether N-15) | 1 to 100
8 | CC[C@H](C)[C@@H]1NC(=O)[C@H](Cc2cccnc2)NC(=O)[C@H](Cc2ccc(O)cc2)NC(=O)[C@H](CC(N)=O)NC(=O)[C@H](Cc2cn(CC(=O)O)c3ccccc23)NC(=O)[C@H](C(C)C)NC(=O)[C@H](Cc2cccc(Cl)c2)N(C)C(=O)[C@H](C(C)C)NC(=O)[C@H](C)NC(=O)CSC[C@@H](C(=O)NCCOCCOCCOCCOCCC(N)=O)NC(=O)[C@H](Cc2ccc(O)cc2)N(C)C(=O)[C@H](Cc2cccc(C(=O)O)c2)NC(=O)[C@H](CCC(=O)NCCOCCOCCOCCOCCOCCOCCOCCOC)NC(=O)[C@H](CCCNC(=N)N)NC(=O)[C@H]([C@@H](C)CC)NC1=O [compound 84] ({CH2CO}-AV[NMePhe(3-Cl)]V[Trp(1-CH2COOH)]NY[3Pal]IIRE(NH(CH2CH2O)8Me)[Phe(3-COOH)][NMeY]C[PEG4]-NH2; thioether N-15) | 1 to 100
9 | CC[C@H](C)[C@@H]1NC(=O)[C@H](Cc2cccnc2)NC(=O)[C@H](Cc2ccc(N)nc2)NC(=O)[C@H](CC(N)=O)NC(=O)[C@H](Cc2cn(CC(=O)O)c3ccccc23)NC(=O)[C@H](C(C)C)NC(=O)[C@H](Cc2cccc(Cl)c2)N(C)C(=O)[C@H](C(C)C)NC(=O)[C@H](C)NC(=O)CSC[C@@H](C(=O)NCCOCCOCCOCCOCCC(N)=O)NC(=O)[C@H](Cc2ccc(O)cc2)N(C)C(=O)[C@H](Cc2cccc(C(=O)O)c2)NC(=O)[C@H](CCC(=O)NCCOCCOCCOCCOCCOCCOCCOCCOC)NC(=O)[C@H](CCCNC(=N)N)NC(=O)[C@H]([C@@H](C)CC)NC1=O [compound 85] ({CH2CO}-AV[NMePhe(3-Cl)]V[Trp(1-CH2COOH)]N[3Pal(6-NH2)][3Pal]IIRE(NH(CH2CH2O)8Me)[Phe(3-COOH)][NMeY]C[PEG4]-NH2; thioether N-15) | 100 to 1000
10 | CC[C@H](C)[C@@H]1NC(=O)[C@H](Cc2cccnc2)NC(=O)[C@H](Cc2ccc(N)nc2)NC(=O)[C@H](CC(N)=O)NC(=O)[C@H](Cc2cn(CC(=O)O)c3ccccc23)NC(=O)[C@H](C(C)C)NC(=O)[C@H](Cc2cccc(Cl)c2)N(C)C(=O)[C@H](C(C)C)NC(=O)[C@H](C)NC(=O)CSC[C@@H](C(=O)NCCOCCOCCOCCOCCC(N)=O)NC(=O)[C@H](Cc2ccc(O)cc2)N(C)C(=O)[C@H](Cc2ccncc2)NC(=O)[C@H](CCC(=O)NCCOCCOCCOCCOCCOCCOCCOCCOC)NC(=O)[C@H](CCCNC(=N)N)NC(=O)[C@H]([C@@H](C)CC)NC1=O [compound 86] ({CH2CO}-AV[NMePhe(3-Cl)]V[Trp(1-CH2COOH)]N[3Pal(6-NH2)][3Pal]IIRE(NH(CH2CH2O)8Me)[4Pal][NMeY]C[PEG4]-NH2; thioether N-15) | 100 to 1000
11 | CC[C@H](C)[C@@H]1NC(=O)[C@H](Cc2ccc(OCC(=O)O)cc2)NC(=O)[C@H](Cc2ccc(N)nc2)NC(=O)[C@H](CC(N)=O)NC(=O)[C@H](Cc2cn(CC(=O)O)c3ccccc23)NC(=O)[C@H](C(C)C)NC(=O)[C@H](Cc2cccc(Cl)c2)N(C)C(=O)[C@H](C(C)C)NC(=O)[C@H](C)NC(=O)CSC[C@@H](C(=O)NCCOCCOCCOCCOCCC(N)=O)NC(=O)[C@H](Cc2ccc(O)cc2)N(C)C(=O)[C@H](Cc2cccc(C(=O)O)c2)NC(=O)[C@H](CCC(=O)NCCOCCOCCOCCOCCOCCOCCOCCOC)NC(=O)[C@H](CCCNC(=N)N)NC(=O)[C@H]([C@@H](C)CC)NC1=O [compound 87] ({CH2CO}-AV[NMePhe(3-Cl)]V[Trp(1-CH2COOH)]N[3Pal(6-NH2)]Y(Carboxymethyl)IIRE(NH(CH2CH2O)8Me)[Phe(3-COOH)][NMeY]C[PEG4]-NH2; thioether N-15) | 100 to 1000
12 | CC[C@H](C)[C@@H]1NC(=O)[C@H](Cc2ccc(OCC(=O)O)cc2)NC(=O)[C@H](Cc2ccc(N)nc2)NC(=O)[C@H](CC(N)=O)NC(=O)[C@H](Cc2cn(CC(=O)O)c3ccccc23)NC(=O)[C@H](C(C)C)NC(=O)[C@H](Cc2cccc(Cl)c2)N(C)C(=O)[C@H](C(C)C)NC(=O)[C@H](C)NC(=O)CSC[C@@H](C(=O)NCCOCCOCCOCCOCCC(N)=O)NC(=O)[C@H](Cc2ccc(O)cc2)N(C)C(=O)[C@H](Cc2ccncc2)NC(=O)[C@H](CCC(=O)NCCOCCOCCOCCOCCOCCOCCOCCOC)NC(=O)[C@H](CCCNC(=N)N)NC(=O)[C@H]([C@@H](C)CC)NC1=O [compound 88] ({CH2CO}-AV[NMePhe(3-Cl)]V[Trp(1-CH2COOH)]N[3Pal(6-NH2)]Y(Carboxymethyl)IIRE(NH(CH2CH2O)8Me)[4Pal][NMeY]C[PEG4]-NH2; thioether N-15) | 100 to 1000
